Measurements as given in US20090123904A1, “COMPOSITION FOR PRESERVING CELLS, TISSUES, OR ORGANS, PRODUCTION PROCESS AND USES” (BIOCYDEX, SOCIETE PAR ACTIONS SIMPLIFIEE, priority 2007, published 2009).

Assay: Dissolution of the powder in ViaSpan preservation medium
Assay type: physicochemical
Conditions: in 10 ml of ViaSpan preservation medium, 100×-concentrated solution
Experimental: The production process consists in taking up 15.77 mg of propane diamine-β-CD in powder form in 10 ml of the preservation medium ViaSpan® to obtain a 100×-concentrated solution.
The preparation of the close mixture is carried out according to the following operating procedure: • 4.57 mg of resveratrol is added to 9 ml of a solution that contains 2495.3 mg of propane diamine-β-CD in water, • The pH is adjusted to 7.4, • The whole is stirred for 5 to 24 hours at 24° C. and in the absence of light, • The solution is next filtered in a Millipore hydrophilic PVDF filter and then freeze-dried to provide a powder that contains a close mixture whose resveratrol/propane diamine-β-CD molar ratio is 1/111, • The freeze-dried close mixture is preserved in amber bottles at 4° C., • 15.8 mg of the close mixture is then taken up in 10 ml of the ViaSpan® preservation medium to obtain a 100×-concentrated solution.

Compound: NCCCNCC1OC2OC3C(CO)OC(OC4C(CO)OC(OC5C(CO)OC(OC6C(CO)OC(OC7C(CO)OC(OC8C(CO)OC(OC1C(O)C2O)C(O)C8O)C(O)C7O)C(O)C6O)C(O)C5O)C(O)C4O)C(O)C3O (stereo not drawn) [propane diamine-β-CD, 6A-(3-aminopropylamino)-6A-deoxy-cyclomatoheptaose]
- Dissolution of the powder: dissolves instantaneously
